inhibition, IC50 and melting point data for eleven compounds are collected here from patent publication US8263606B2 (Xenon Pharmaceuticals Inc., priority 2008, dated 2012).

Molecules are shown by their SMILES.

One series deals with CYP3A4 (Homo sapiens, UniProt P08684). Put plainly: Cytochrome P450 (CYP450) Inhibition Assay, CYP3A4 (Vivid fluorescence, BOMCC substrate). As to conditions: human, P450 Baculosomes (recombinant CYP3A4), probe BOMCC (Vivid substrate).
A further series has as its system sodium channel. Kind of series: Guanidine influx assay (14C-guanidine radiotracer flux, in vitro). It counts as cell-based, human or rat. The conditions noted are these: guanidine influx assay using a known cell line that expresses a sodium channel; activity level class. The essentials:
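IC50 derives from a four-parameter logistic fit of 14C-guanidine uptake, test agent serially half-diluted around a 1 μM midpoint. Flux was driven by aconitine in low-sodium HEPES/choline saline at ambient temperature, using endogenous or recombinant human or rat sodium-channel cell lines plated ~100,000/well for 20–24 h.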

CYP3A4, sequence (P08684 whole entry): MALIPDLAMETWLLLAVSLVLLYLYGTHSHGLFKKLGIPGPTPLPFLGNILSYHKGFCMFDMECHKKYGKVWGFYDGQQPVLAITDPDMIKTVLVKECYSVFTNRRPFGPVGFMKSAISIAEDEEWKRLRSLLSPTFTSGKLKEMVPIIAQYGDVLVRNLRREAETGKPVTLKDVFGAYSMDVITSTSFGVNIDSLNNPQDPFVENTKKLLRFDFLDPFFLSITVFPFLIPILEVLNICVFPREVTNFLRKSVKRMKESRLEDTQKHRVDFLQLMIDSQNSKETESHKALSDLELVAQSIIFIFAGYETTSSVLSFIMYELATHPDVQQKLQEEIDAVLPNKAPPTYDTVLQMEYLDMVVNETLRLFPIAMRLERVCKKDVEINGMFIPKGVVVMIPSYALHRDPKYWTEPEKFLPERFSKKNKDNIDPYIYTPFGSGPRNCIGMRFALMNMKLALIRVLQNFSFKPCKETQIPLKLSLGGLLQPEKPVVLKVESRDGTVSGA

Broadly, the inhibition is the change of the read-out against control, counted positive when it falls. The term IC50 denotes the concentration at which inhibition is half-maximal. One may read the melting point as the temperature of the solid-liquid transition. Regarding `Cc1noc2cc3c(cc12)C1(CO3)C(=O)N(Cc2cccnc2)c2ccccc21` (stereo not drawn) [Example 9.25, 3-methyl-1′-(pyridin-3-ylmethyl)spiro[furo[3,2-f][1,2]benzisoxazole-5,3′-indol]-2′(1′H)-one], the melting point was 176 to 177 °C. For the same compound, at CYP3A4, the inhibition at 10 µM was above 50%. In addition, in the series with sodium channel, the IC50 is 1 to 100 nM.
`Cc1noc2cc3c(cc12)C1(CO3)C(=O)N(C[C@H]2CCCO2)c2ccccc21` (stereo partly drawn) [Example 9.26, 3-methyl-1′-[(2R)-tetrahydrofuran-2-ylmethyl]spiro[furo[3,2-f][1,2]benzisoxazole-5,3′-indol]-2′(1′H)-one] registered a melting point of 134 to 135 °C. The inhibition at 10 µM at CYP3A4 was below 50%. In addition, the half-inhibitory concentration (IC50) in the series with sodium channel was 100 to 1000 nM.
For `Cc1cc2c(cc1C)C1(CO2)C(=O)N(CC2CCOCC2)c2ccccc21` (stereo not drawn) [Example 9.27, 5,6-dimethyl-1′-(tetrahydro-2H-pyran-4-ylmethyl)spiro[1-benzofuran-3,3′-indol]-2′(1′H)-one] the same measures were 199 to 201 °C, above 50% and 1000 to 10000 nM.
For `Cc1cc2c(cc1C)C1(CO2)C(=O)N(Cc2ccccn2)c2ccccc21` (stereo not drawn) [Example 9.28, 5,6-dimethyl-1′-(pyridin-2-ylmethyl)spiro[1-benzofuran-3,3′-indol]-2′(1′H)-one] the same measures were 165 to 168 °C, below 50% and 100 to 1000 nM.
For `COc1cc2c(cc1F)C1(CO2)C(=O)N(Cc2ccc(C(F)(F)F)o2)c2ccccc21` (stereo not drawn) [Example 9.30, 5-fluoro-6-methoxy-1′-{[5-(trifluoromethyl)furan-2-yl]methyl}spiro[1-benzofuran-3,3′-indol]-2′(1′H)-one] the same measures were 45 to 47 °C, above 50% and 100 to 1000 nM.
As to `O=C1N(Cc2cccnc2)c2ccccc2C12COc1cc(F)c(F)cc12` (stereo not drawn) [Example 9.31, 5,6-difluoro-1′-(pyridin-3-ylmethyl)spiro[1-benzofuran-3,3′-indol]-2′(1′H)-one], the melting point was 175 to 177 °C. For the same compound, at CYP3A4, the inhibition at 10 µM was above 50%. Moreover, in the series with sodium channel, the IC50 was in the range of 1000 to 10000 nM.
The like results for `COc1ccc2c(c1)OCC21C(=O)N(Cc2ccccn2)c2ccccc21` (stereo not drawn) [Example 9.33, 6-methoxy-1′-(pyridin-2-ylmethyl)-2H-spiro[benzofuran-3,3′-indolin]-2′-one] were, in that order, 122 to 123 °C, below 50% and 1 to 100 nM.
For `COc1ccc2c(c1)OCC21C(=O)N(Cc2cccnc2)c2ccccc21` (stereo not drawn) [Example 9.34, 6-methoxy-1′-(pyridin-3-ylmethyl)spiro[1-benzofuran-3,3′-indol]-2′(1′H)-one] the same measures were 164 to 165 °C, above 50% and 1 to 100 nM.
The like results for `O=C1N(Cc2ccc(OCc3ccccc3)cc2)c2ccccc2C12COc1cc3c(cc12)OCCO3` (stereo not drawn) [Example 9.37, 1′-[4-(benzyloxy)benzyl]-2,3-dihydrospiro[furo[2,3-g][1,4]benzodioxine-8,3′-indol]-2′(1′H)-one] were, in that order, 87 to 89 °C, below 50% and 100 to 1000 nM.
For `O=C1N(Cc2ccc(OCc3ccccc3)cc2)c2ccccc2C12COc1cc3c(cc12)CCO3` (stereo not drawn) [Example 9.38, 1′-[4-(benzyloxy)benzyl]-5,6-dihydrospiro[benzo[1,2-b:5,4-b′]difuran-3,3′-indol]-2′(1′H)-one], the melting point was in the range of 169 to 170 °C. Moreover, on CYP3A4, the inhibition at 10 µM was below 50%. In addition, the half-inhibitory concentration (IC50) in the series on sodium channel lay within 100 to 1000 nM.
For `O=C1N(Cc2ccc(OCc3ccccc3)cc2)c2ccccc2[C@]12COc1cc3c(cc12)OCCO3` [Example 9.39, (8S)-1′-[4-(Benzyloxy)Benzyl]-2,3-Dihydrospiro[Furo[2,3-g][1,4]Benzodioxine-8,3′-Indol]-2′(1′H)-One] the same measures were 151 to 153 °C, below 50% and 100 to 1000 nM.
